Results from ChEMBL document CHEMBL3232855, “The discovery of N-((2H-tetrazol-5-yl)methyl)-4-((R)-1-((5r,8R)-8-(tert-butyl)-3-(3,5-dichlorophenyl)-2-oxo-1,4-diazaspiro[4.5]dec-3-en-1-yl)-4,4-dimethylpentyl)benzamide (SCH 900822): a potent and selective glucagon receptor antagonist” (J Med Chem, 2014).

Columns and labels:
Glucagon receptor [1] = target: T1, Glucagon receptor (Homo sapiens, UniProt P47871); test: Antagonist activity at human GCGR expressed in CHO cells assessed as inhibition of glucagon-stimulated cAMP production preincubated for 30 mins followed by glucagon induction measured after 45 mins by LANCE assay; type: functional, cell-based
[2] = target: Glucagon-like peptide 1 receptor (Homo sapiens, UniProt P43220); test: Antagonist activity at human GLP-1R expressed in CHO cells assessed as inhibition of GLP-1-stimulated cAMP production preincubated for 30 mins followed by GLP-1 induction measured after 45 mins by LANCE assay; type: functional, cell-based
Glucagon receptor [3] = target: Glucagon receptor (Mus musculus, UniProt Q61606); type: cell membranes, Liver, Membrane
Description: Displacement of [125I]-glucagon from GCGR in mouse liver membranes after 60 mins by scintillation counting analysis

Glucagon receptor [4] = target: T1, Glucagon receptor; test: biochemical; type: cell-based, CHO
Description: Displacement of [125I]-glucagon from recombinant human GCGR expressed in CHO cells after 60 mins by scintillation counting analysis

Chain of Glucagon-like peptide 1 receptor (P43220 whole entry): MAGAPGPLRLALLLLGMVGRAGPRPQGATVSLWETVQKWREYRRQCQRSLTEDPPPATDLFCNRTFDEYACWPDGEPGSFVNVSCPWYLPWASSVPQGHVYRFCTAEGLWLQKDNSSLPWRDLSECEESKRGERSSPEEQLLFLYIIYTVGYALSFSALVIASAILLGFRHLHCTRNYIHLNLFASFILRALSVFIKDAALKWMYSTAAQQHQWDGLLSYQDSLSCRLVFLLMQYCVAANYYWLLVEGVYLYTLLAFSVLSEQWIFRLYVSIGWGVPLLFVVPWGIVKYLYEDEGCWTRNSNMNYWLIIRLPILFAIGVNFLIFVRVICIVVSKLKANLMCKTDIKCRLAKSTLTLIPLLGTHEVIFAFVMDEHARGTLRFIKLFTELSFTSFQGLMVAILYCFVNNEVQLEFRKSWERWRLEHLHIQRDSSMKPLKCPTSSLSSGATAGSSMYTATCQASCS
T1 sequence (P47871 whole entry): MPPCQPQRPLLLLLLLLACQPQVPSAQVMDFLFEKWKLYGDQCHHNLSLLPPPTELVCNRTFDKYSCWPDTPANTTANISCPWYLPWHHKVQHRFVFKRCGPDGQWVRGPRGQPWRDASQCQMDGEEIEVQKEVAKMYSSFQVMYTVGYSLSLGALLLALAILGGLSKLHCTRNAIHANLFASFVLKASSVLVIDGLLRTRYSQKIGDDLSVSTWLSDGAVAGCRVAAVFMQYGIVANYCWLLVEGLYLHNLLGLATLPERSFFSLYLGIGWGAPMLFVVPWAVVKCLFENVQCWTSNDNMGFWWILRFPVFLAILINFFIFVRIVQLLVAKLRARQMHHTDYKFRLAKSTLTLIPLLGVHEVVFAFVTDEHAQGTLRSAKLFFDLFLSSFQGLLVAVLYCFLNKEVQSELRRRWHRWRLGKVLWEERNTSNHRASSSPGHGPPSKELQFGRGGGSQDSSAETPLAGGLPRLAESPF
Chain of Glucagon receptor (Mus musculus, UniProt Q61606) (Q61606 whole entry): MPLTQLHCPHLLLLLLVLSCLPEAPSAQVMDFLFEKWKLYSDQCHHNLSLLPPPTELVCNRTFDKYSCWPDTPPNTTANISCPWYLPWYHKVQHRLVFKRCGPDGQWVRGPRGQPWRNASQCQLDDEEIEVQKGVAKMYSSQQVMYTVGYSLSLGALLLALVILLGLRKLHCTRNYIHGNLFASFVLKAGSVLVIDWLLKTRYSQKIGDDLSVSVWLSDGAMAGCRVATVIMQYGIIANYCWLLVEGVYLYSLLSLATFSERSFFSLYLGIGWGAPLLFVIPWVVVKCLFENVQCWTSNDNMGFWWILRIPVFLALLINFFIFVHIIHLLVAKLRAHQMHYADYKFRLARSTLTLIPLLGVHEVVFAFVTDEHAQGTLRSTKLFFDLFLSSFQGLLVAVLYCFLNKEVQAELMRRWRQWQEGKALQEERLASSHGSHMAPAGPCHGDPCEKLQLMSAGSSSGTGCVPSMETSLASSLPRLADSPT

Row | Structure (SMILES) | IC50 (Glucagon receptor [1]) | IC50 [2] | IC50 (Glucagon receptor [3]) | IC50 (Glucagon receptor [4])
1 | C[C@H](c1ccc(C(=O)Nc2nnn[nH]2)cc1)N1C(=O)C(c2cc(Cl)cc(Cl)c2)=N[C@]12CC[C@@H](C(C)(C)C)CC2 | 750 nM | 800 nM | > 10000 nM | 470 nM
2 | CC(C)(C)CC[C@H](c1ccc(C(=O)NCC(=O)O)cc1)N1C(=O)C(c2cc(Cl)cc(Cl)c2)=N[C@]12CC[C@@H](C(C)(C)C)CC2 | 2700 nM | > 10000 nM | – | –
3 | CC(C)(C)CC[C@H](c1ccc(C(=O)NCCS(=O)(=O)O)cc1)N1C(=O)C(c2cc(Cl)cc(Cl)c2)=N[C@]12CC[C@@H](C(C)(C)C)CC2 | 8500 nM | > 10000 nM | – | –
4 | C[C@H](CC(=O)O)NC(=O)c1ccc([C@@H](CCC(C)(C)C)N2C(=O)C(c3cc(Cl)cc(Cl)c3)=N[C@]23CC[C@@H](C(C)(C)C)CC3)cc1 | 530 nM | > 10000 nM | 6100 nM | 120 nM
5 | CC(C)(C)CC[C@H](c1ccc(C(=O)NCc2nn[nH]n2)cc1)N1C(=O)C(c2ccc(F)cc2)=N[C@]12CC[C@@H](C(C)(C)C)CC2 | 240 nM | > 10000 nM | 90 nM | 13 nM
6 | CC[C@H](c1ccc(C(=O)NCc2nn[nH]n2)cc1)N1C(=O)C(c2cc(Cl)cc(Cl)c2)=N[C@]12CC[C@@H](C(C)(C)C)CC2 | 270 nM | > 10000 nM | 370 nM | 82 nM
7 | C[C@H](c1ccc(C(=O)NCCC(=O)O)cc1)N1C(=O)C(c2ccccc2)=N[C@]12CC[C@@H](C(C)(C)C)CC2 | 630 nM | > 10000 nM | 5300 nM | 360 nM
8 | CC(C)(C)CC[C@H](c1ccc(C(=O)NCc2nn[nH]n2)cc1)N1C(=O)C(c2cccc(F)c2)=N[C@]12CC[C@@H](C(C)(C)C)CC2 | 140 nM | > 10000 nM | 100 nM | 21 nM
9 | CC(C)(C)CC[C@H](c1ccc(C(=O)NC[C@H](O)C(=O)O)cc1)N1C(=O)C(c2cc(Cl)cc(Cl)c2)=N[C@]12CC[C@@H](C(C)(C)C)CC2 | 370 nM | > 10000 nM | – | 86 nM
10 | C[C@H](c1ccc(C(=O)NC[C@@H](O)C(=O)O)cc1)N1C(=O)C(c2cc(Cl)cc(Cl)c2)=N[C@]12CC[C@@H](C(C)(C)C)CC2 | > 10000 nM | > 10000 nM | 1100 nM | 190 nM
11 | C[C@H](c1ccc(C(=O)NCCC(=O)O)cc1)N1C(=O)C(c2ccc(Cl)c(Cl)c2)=N[C@]12CC[C@@H](C(C)(C)C)CC2 | 550 nM | 4400 nM | 3200 nM | 95 nM
12 | C[C@H](c1ccc(C(=O)NCCC(=O)O)cc1)N1C(=O)C(c2ccccc2F)=N[C@]12CC[C@@H](C(C)(C)C)CC2 | 350 nM | > 10000 nM | > 10000 nM | 1100 nM
13 | CC(C)(C)CC[C@H](c1ccc(C(=O)NCc2nn[nH]n2)cc1)N1C(=O)C(c2cc(F)cc(Cl)c2)=N[C@]12CC[C@@H](C(C)(C)C)CC2 | 42 nM | > 10000 nM | 160 nM | 10 nM
14 | COc1ccc(C2=N[C@]3(CC[C@@H](C(C)(C)C)CC3)N([C@H](CCC(C)(C)C)c3ccc(C(=O)NCc4nn[nH]n4)cc3)C2=O)cc1 | 360 nM | > 10000 nM | – | 26 nM
15 | C[C@@H](NC(=O)c1ccc([C@@H](CCC(C)(C)C)N2C(=O)C(c3cc(Cl)cc(Cl)c3)=N[C@]23CC[C@@H](C(C)(C)C)CC3)cc1)c1nnn[nH]1 | 4500 nM | > 10000 nM | – | –
16 | CC(C)[C@H](c1ccc(C(=O)NCc2nn[nH]n2)cc1)N1C(=O)C(c2cc(Cl)cc(Cl)c2)=N[C@]12CC[C@@H](C(C)(C)C)CC2 | 2200 nM | – | – | –
17 | C[C@H](c1ccc(C(=O)NC[C@H](O)C(=O)O)cc1)N1C(=O)C(c2cc(Cl)cc(Cl)c2)=N[C@]12CC[C@@H](C(C)(C)C)CC2 | > 10000 nM | > 10000 nM | 1500 nM | 160 nM

Row | Structure (SMILES) | IC50 (Glucagon receptor [1]) | IC50 [2] | IC50 (Glucagon receptor [3]) | IC50 (Glucagon receptor [4])
18 | CC(C)(C)[C@H]1CC[C@]2(CC1)N=C(c1cc(Cl)cc(Cl)c1)C(=O)N2[C@@H](c1ccc(C(=O)NCc2nn[nH]n2)cc1)C1CC1 | 540 nM | > 10000 nM | 750 nM | 72 nM
19 | CC(Cc1ccc(C(=O)NCCC(=O)O)cc1)N1C(=O)C(c2cc(Cl)cc(Cl)c2)=N[C@]12CC[C@@H](C(C)(C)C)CC2 (some centres not stated) | 140 nM | 3100 nM | 1300 nM | 190 nM
20 | CC(C)(C)CC[C@H](c1ccc(C(=O)NCc2nn[nH]n2)cc1)N1C(=O)C(c2cc(Cl)cc(Cl)c2)=N[C@]12CC[C@@H](C)CC2 | 260 nM | > 10000 nM | – | 36 nM
21 | C[C@H](c1ccc(C(=O)NCCC(=O)O)cc1)N1C(=O)C(c2cc(Cl)ccc2F)=N[C@]12CC[C@@H](C(C)(C)C)CC2 | 750 nM | > 10000 nM | 4600 nM | 340 nM
22 | CC(C)(C)CC[C@H](c1ccc(C(=O)NC[C@@H](O)C(=O)O)cc1)N1C(=O)C(c2cc(Cl)cc(Cl)c2)=N[C@]12CC[C@@H](C(C)(C)C)CC2 (mixture of isomers) | 400 nM | > 10000 nM | – | 149 nM
23 | CC(C)(C)CC[C@H](c1ccc(C(=O)Nc2nnn[nH]2)cc1)N1C(=O)C(c2cc(Cl)cc(Cl)c2)=N[C@]12CC[C@@H](C(C)(C)C)CC2 | 850 nM | 140 nM | – | 600 nM
24 | CC(C)(C)CC[C@H](c1ccc(C(=O)NCc2nn[nH]n2)cc1)N1C(=O)C(c2cc(Cl)cc(Cl)c2)=NC1(C)C | – | > 10000 nM | – | –
25 | COc1cccc(C2=N[C@]3(CC[C@@H](C(C)(C)C)CC3)N([C@H](CCC(C)(C)C)c3ccc(C(=O)NCc4nn[nH]n4)cc3)C2=O)c1 | 230 nM | > 10000 nM | – | 15 nM
26 | CC[C@H]1CC[C@]2(CC1)N=C(c1cc(Cl)cc(Cl)c1)C(=O)N2[C@H](CCC(C)(C)C)c1ccc(C(=O)NCc2nn[nH]n2)cc1 | 66 nM | > 10000 nM | – | 44 nM
27 | C[C@@H](c1ccc(C(=O)NCCC(=O)O)cc1)N1C(=O)C(c2cc(Cl)cc(Cl)c2)=N[C@]12CC[C@@H](C(C)(C)C)CC2 | 5100 nM | > 10000 nM | – | –
28 | CC(C)(C)CC[C@H](c1ccc(C(=O)NCc2nn[nH]n2)cc1)N1C(=O)C(c2ncccc2C(F)(F)F)=N[C@]12CC[C@@H](C(C)(C)C)CC2 | 1600 nM | > 10000 nM | – | –
29 | CC(C)(C)CC[C@H](c1ccc(C(=O)NCCCC(=O)O)cc1)N1C(=O)C(c2cc(Cl)cc(Cl)c2)=N[C@]12CC[C@@H](C(C)(C)C)CC2 | 350 nM | > 10000 nM | – | 270 nM
30 | CC(C)(C)CC[C@H](c1ccc(C(=O)NCCC2=NNNN2)cc1)N1C(=O)C(c2cc(Cl)cc(Cl)c2)=N[C@]12CC[C@@H](C(C)(C)C)CC2 | 890 nM | > 10000 nM | – | 65 nM
31 | CC(C)(C)CC[C@H](c1ccc(C(=O)NCc2nn[nH]n2)cc1)N1C(=O)C(c2cc(Cl)cc(Cl)c2)=NC12CCCCC2 | 510 nM | > 10000 nM | – | 195 nM
32 | C[C@@H](CC(=O)O)NC(=O)c1ccc([C@@H](CCC(C)(C)C)N2C(=O)C(c3cc(Cl)cc(Cl)c3)=N[C@]23CC[C@@H](C(C)(C)C)CC3)cc1 | > 10000 nM | > 10000 nM | – | –
33 | C[C@H](NC(=O)c1ccc([C@@H](CCC(C)(C)C)N2C(=O)C(c3cc(Cl)cc(Cl)c3)=N[C@]23CC[C@@H](C(C)(C)C)CC3)cc1)c1nnn[nH]1 | > 10000 nM | > 10000 nM | – | –
